Assay [1] deals with Daphnia sp. Particulars: OECD Test No. 202 acute immobilisation. As to the method:
The polyisobutylene substituted phenol described in Example 1 was tested for Acute Ecotox Value for Invertebrate using the OECD Guidelines for the Testing of Chemicals, Test No. 202 Daphnia sp. Acute Immobilisation Test (2004). Samples of alkyl-phenols having C4 and C8 alkyl groups were compared to the Sample of Example 1. A published test value for PDDP using the same test method is also included as a comparison.

The subject of assay [2] is Daphnia sp. Particulars: published value, same test method; Daphnia magna, Sewell & McKenzie (2005a); cited from earlier work.

Read-outs that look alike come from different tables or passages of the source.

As for “350 Mn polyisobutylene-alkylated phenol [Example 1]”, the “Acute Ecotox Value for Invertebrate daphnid (EC50)” value in the assay with Daphnia sp. [1] was greater than 100 µg/mL.

As to PDDP [Comparative Ex. 3], the “Acute Ecotox Value for Invertebrate daphnid (EC50)” value with Daphnia sp. [2] is 0.037 µg/mL.

Source of the values: US20210269734A1, “POLYISOBUTYLENE-SUBSTITUTED PHENOL, DERIVATIVES THEREOF, AND LUBRICATING COMPOSITIONS CONTAINING THE POLYISOBUTYLENE-SUBSTITUTED PHENOL AND ITS DERIVATIVES” (The Lubrizol Corporation, priority 2016, published 2021).
